Patent US5362634A, “Process for producing A83543 compounds” (DowElanco, priority 1991, dated 1994)
In brackets after ≈: the same amount, converted by molar mass. Like-named read-outs stand apart in the source and are kept apart here.

What was measured:
[1] = tested on: SAW (Southern armyworm) larvae; assay: Topical test against SAW larvae; format: in vivo; details: Spodoptera eridania
Description: (§1) Each test compound was formulated by dissolving the compound in an acetone/alcohol (1:1) mixture containing 23 g of "Toximul R" (sulfonate/nonionic emulsifier blend) and 13 g of "Toximul S" (sulfonate/nonionic emulsifier blend) per liter. These mixtures were then diluted with water to give the indicated concentrations.
(§2) Additional insects were evaluated using similar formulations and evaluation procedures, with the exceptions noted.
(§3) After standard exposure periods, percent mortality was evaluated. The following abbreviations are used:
(§4) ^a Days between treatment and observation
(§5) ^b Mean of replicates tested
^f Treated topically with 1 mL of formulated A83543A

[2] = tested on: Nematospiroides dubius; assay: Anthelmintic activity in mice experimentally infected with Nematospiroides dubius; format: in vivo; details: single oral gavage at 500 mg/kg
[3] = tested on: CA (cotton aphid); assay: Greenhouse test against CA; format: in vivo; details: Aphis gossypii, squash
Description: as §1
(§6) Two-spotted spider mites (Tetranychus urticae Koch) and cotton or melon aphids (Aphis gossypii Glover) were introduced on squash cotyledons and allowed to establish on both leaf surfaces. Other plants in the same treatment pot were left uninfested. The leaves were then sprayed with 5 mL of test solution using a DeVilbiss atomizing sprayer at 10 psi. Both surfaces of the leaves were covered until runoff and then allowed to dry for one hour. Two uninfested leaves were then excised and placed into a Petri dish containing Southern armyworm (Spodoptera eridania Cramer).
After standard exposure periods, percent mortality was evaluated.

[4] = tested on: neonate CBW (cotton bollworm) larvae; assay: Percent control of neonate CBW larvae by A83543 components, topical pipet method; format: in vivo, Heliothis zea; details: topical, 24 h, read-out: Percent Control
Description: as §1, §2, §3
^1 Treatments with the same letter in parentheses are similar at the
^2 Topical pipet method with 20 larve/replicate and 4 replicates; one
day between treatment and observation.

[5] = tested on: black blow fly larvae; assay: In vitro efficacy against black blow fly larvae; details: Phormia regina
Excerpt: Tables XIX-XXI summarize in vitro studies with A83543A and A83543D.

[6] = tested on: first instar yellow fever mosquito larvae; assay: In vitro mosquito larvicide test, first instar; details: Aedes aegypti, 24 h, lowest concentration with 100% inhibition after 24 hr, microtiter plates, read-out: Minimal Inhibitory Concentration
Excerpt: The A83543 components were active against yellow fever mosquito (Aedes aegypti) larvae in standard in vitro mosquito larvicide tests.

[7] = tested on: blow fly larvae (LBF); assay: Guinea pig systemic test, blow fly larvae; format: in vivo
Description: Adult guinea pigs are used in this test system. The compounds to be tested are dissolved in aqueous polyvinyl pyrrolidone or in polyethylene glycol 200, and an appropriate amount of the solution is administered either orally or by intraperitoneal injection.
Blood is drawn from the guinea pigs at 30 minutes except as noted, and the samples of blood are centrifuged. Dental wicks are saturated with the blood serum, and then exposed in Petri dishes to adult stable flies; blow fly larvae are exposed in test tubes. After 24 and 48 hours, the insects are examined, and the number of dead are counted. The results of the tests are recorded as the percent of the insects which are killed.

[8] = Anthelmintic activity in sheep; format: in vivo
[9] = tested on: SAW (Southern armyworm) larvae; assay: Foliar/bushbean test against SAW larvae; format: in vivo; details: Spodoptera eridania, foliar; for inhibition at 0.5 ppm: 0.50 ppm
Description: as §1
as §6, with “Two-spotted spider mites (Tetranychus urticae Koch) and cotton or melon aphids (Aphis gossypii Glover) were introduced on squash cotyledons and allowed to establish on both leaf surfaces.” left out
as §2, §3, §4, §5

CC[C@H]1CCC[C@H](O[C@H]2CC[C@H](N(C)C)[C@@H](C)O2)[C@@H](C)C(=O)C2=C[C@@H]3[C@@H](C=C[C@@H]4C[C@@H](O[C@@H]5O[C@@H](C)[C@H](OC)[C@@H](OC)[C@H]5OC)C[C@@H]34)[C@@H]2CC(=O)O1 [A83543A]
inhibition at 1 ppm ([1]; 24 h, second instar, 1 day): 0% | inhibition at 5 ppm ([1]; 24 h, second instar, 1 day): 0% | inhibition at 10 ppm ([1]; 24 h, second instar, 1 day): 0% | inhibition at 50 ppm ([1]; 24 h, second instar, 1 day): 80% | inhibition at 100 ppm ([1]; 24 h, second instar, 1 day): 100% | inhibition at 10 ppm ([1]; 48 h, fifth instar, 2 days): 0% | inhibition at 50 ppm ([1]; 48 h, fifth instar, 2 days): 0% | inhibition at 1 ppm ([1]; 48 h, third instar, 2 days): 0% | inhibition at 5 ppm ([1]; 48 h, third instar, 2 days): 0% | inhibition at 10 ppm ([1]; 48 h, third instar, 2 days): 13.3% | inhibition at 50 ppm ([1]; 48 h, third instar, 2 days): 73.3% | inhibition at 1 ppm ([1]; 72 h, neonate, 3 days): 0% | inhibition at 5 ppm ([1]; 72 h, neonate, 3 days): 60% | inhibition at 10 ppm ([1]; 72 h, neonate, 3 days): 100% | inhibition at 50 ppm ([1]; 72 h, neonate, 3 days): 100% | inhibition at 100 ppm ([1]; 72 h, neonate, 3 days): 100% | anthelmintic activity [2]: did not show anthelmintic activity | inhibition at 25 ppm ([3]; 25 ppm, second series): 0% | inhibition at 50 ppm ([3]; first series): 0% | inhibition at 50 ppm ([3]; second series): 40% | inhibition at 100 ppm ([3]; first series): 0% | inhibition at 100 ppm ([3]; second series): 80% | mortality at 0.5 ppm [4]: 55% | mortality at 1 ppm [4]: 100% | mortality at 5 ppm [4]: 100% | mortality at 10 ppm [4]: 100% | mortality at 0.25 ppm ([5]; 0.25 ppm): 25% | mortality at 0.5 ppm ([5]; 0.5 ppm): 60% | mortality at 1 ppm ([5]; 1 ppm): 95% | mortality at 2 ppm ([5]; 2 ppm): 100% | mortality at 5 ppm ([5]; 5 ppm): 100% | mortality at 10 ppm ([5]; 10 ppm): 100% | mortality at 25 ppm ([5]; 25 ppm): 100% | mortality at 50 ppm ([5]; 50 ppm): 100% | mortality at 100 ppm ([5]; 100 ppm): 100% | MIC [6]: 0.016 mg/L (≈ 0.0219 µM) | MIC ([6]; second of two lots): 0.031 mg/L (≈ 0.0424 µM) | LBF activity (% mortality) ([7]; 10 mg/kg IP, 30 min): 0% | % Activity LBF ([7]; 10 mg/kg IP, bled 30 min): 0% | % Activity LBF ([7]; 10 mg/kg IP, bled 5 hr): 0% | % Activity LBF ([7]; 10 mg/kg IP, bled 24 hr): 0% | LBF activity (% mortality) ([7]; 20 mg/kg IP, 30 min): 0% | % Activity LBF ([7]; 20 mg/kg IP, bled 30 min): 0% | % Activity LBF ([7]; 20 mg/kg IP, bled 5 hr): 0% | % Activity LBF ([7]; 20 mg/kg IP, bled 24 hr): 0% | LBF activity (% mortality) ([7]; 30 mg/kg IP): 90% | % Activity LBF ([7]; 30 mg/kg IP, bled 30 min): 90% | % Activity LBF ([7]; 30 mg/kg IP, bled 5 hr): 50% | % Activity LBF ([7]; 30 mg/kg IP, bled 24 hr): 30% | LBF activity (% mortality) ([7]; 50 mg/kg IP, 30 min): 100% | % Activity LBF ([7]; 50 mg/kg IP, bled 30 min): 100% | % Activity LBF ([7]; 50 mg/kg IP, bled 5 hr): 95% | % Activity LBF ([7]; 50 mg/kg IP, bled 24 hr): 25% | LBF activity (% mortality) ([7]; 50 mg/kg OR (oral), 30 min): 100% | % Activity LBF ([7]; 50 mg/kg oral, bled 5 hr): 100% | % Activity LBF ([7]; 50 mg/kg oral, bled 24 hr): 0% | anthelmintic activity ([8]; single intraperitoneal dose of 50 mg/kg): did not show anthelmintic activity | anthelmintic activity ([8]; single intraruminal dose of 50 mg/kg): did not show anthelmintic activity | inhibition at 1 ppm ([9]; 72 h, neonate, 3 days): 10% | inhibition at 5 ppm ([9]; 72 h, neonate, 3 days): 40% | inhibition at 10 ppm ([9]; 72 h, neonate, 3 days): 100% | inhibition at 50 ppm ([9]; 72 h, neonate, 3 days): 100% | inhibition at 100 ppm ([9]; 72 h, neonate, 3 days): 100% | inhibition at 10 ppm ([9]; 96 h, fifth instar, 4 days): 0% | inhibition at 50 ppm ([9]; 96 h, fifth instar, 4 days): 0% | inhibition at 0.5 ppm ([9]; 96 h, neonate, 4 days): 0% | inhibition at 1 ppm ([9]; 96 h, neonate, 4 days): 66.7% | inhibition at 5 ppm ([9]; 96 h, neonate, 4 days): 100% | inhibition at 10 ppm ([9]; 96 h, neonate, 4 days): 100% | inhibition at 50 ppm ([9]; 96 h, neonate, 4 days): 100% | inhibition at 1 ppm ([9]; 96 h, second instar, 4 days): 0% | inhibition at 5 ppm ([9]; 96 h, second instar, 4 days): 0% | inhibition at 10 ppm ([9]; 96 h, second instar, 4 days): 80% | inhibition at 50 ppm ([9]; 96 h, second instar, 4 days): 80% | inhibition at 100 ppm ([9]; 96 h, second instar, 4 days): 100% | inhibition at 0.5 ppm ([9]; 96 h, third instar, 4 days): 0% | inhibition at 1 ppm ([9]; 96 h, third instar, 4 days): 0% | inhibition at 5 ppm ([9]; 96 h, third instar, 4 days): 40% | inhibition at 10 ppm ([9]; 96 h, third instar, 4 days): 100% | inhibition at 50 ppm ([9]; 96 h, third instar, 4 days): 100%
